Data as given in patent publication US20050043315A1, “Aminopyrimidine compounds, processes for their preparation and pharmaceutical compositions containing them” (priority 2002, published 2005).

Row | SMILES | melting point [°C]
1 | CC(C)n1nc(-c2c(OCCN(C)C)nc(N)nc2-c2ccccc2)ccc1=O [Example 88, 6-{2-Amino-4-[2-(dimethylamino)ethoxy]-6-phenyl-5-pyrimidinyl}-2-isopropyl-3(2H)-pyridazinone] | 130 to 131.5
2 | COC(=O)COc1nc(N)nc(-c2ccccc2)c1-c1ccc(=O)n(C(C)C)n1 [Example 89, methyl {[2-amino-5-(1-isopropyl-6-oxo-1,6-dihydro-3-pyridazinyl)-6-phenyl-4-pyrimidinyl]oxy}acetate] | 150 to 152.5
3 | CCCOc1nc(N)nc(-c2ccccc2)c1-c1ccc(=O)n(C(C)C)n1 [Example 91, 6-(2-amino-4-phenyl-6-propoxy-5-pyrimidinyl)-2-isopropyl-3(2H)-pyridazinone] | 127.5 to 129
4 | CC(C)n1nc(-c2c(OCc3ccccn3)nc(N)nc2-c2ccccc2)ccc1=O [Example 94, 6-[2-amino-4-phenyl-6-(2-pyridinylmethoxy)-5-pyrimidinyl]-2-isopropyl-3(2H)-pyridazinone] | 177 to 178
5 | CC(C)n1nc(-c2c(OC3CCCCC3)nc(N)nc2-c2ccccc2)ccc1=O [Example 96, 6-[2-Amino-4-(cyclohexyloxy)-6-phenyl-5-pyrimidinyl]-2-isopropyl-3(2H)-pyridazinone] | 173 to 175
6 | CC(C)n1nc(-c2c(Oc3ccccc3)nc(N)nc2-c2ccccc2)ccc1=O [Example 98, 6-(2-Amino-4-phenoxy-6-phenyl-5-pyrimidinyl)-2-isopropyl-3(2H)-pyridazinone] | 218 to 221
7 | CC(C)n1nc(-c2c(OCC(N)=O)nc(N)nc2-c2ccccc2)ccc1=O [Example 99, 2-{[2-amino-5-(1-isopropyl-6-oxo-1,6-dihydro-3-pyridazinyl)-6-phenyl-4-pyrimidinyl]oxy}acetamide] | 257 to 261
8 | CC(C)n1nc(-c2c(OCC(=O)O)nc(N)nc2-c2ccccc2)ccc1=O [Example 100, {[2-amino-5-(1-isopropyl-6-oxo-1,6-dihydro-3-pyridazinyl)-6-phenyl-4-pyrimidinyl]oxy}acetic acid] | 215 to 217
9 | CNC(=O)COc1nc(N)nc(-c2ccccc2)c1-c1ccc(=O)n(C(C)C)n1 [Example 101, 2-{[2-amino-5-(1-isopropyl-6-oxo-1,6-dihydro-3-pyridazinyl)-6-phenyl-4-pyrimidinyl]oxy}-N-methylacetamide] | 204 to 205.5
10 | CC(C)n1nc(-c2c(OCC(=O)N(C)C)nc(N)nc2-c2ccccc2)ccc1=O [Example 102, 2-{[2-Amino-5-(1-isopropyl-6-oxo-1,6-dihydro-3-pyridazinyl)-6-phenyl-4-pyrimidinyl]oxy}-N,N-dimethylacetamide] | 133 to 135.5
11 | CC(C)n1nc(-c2c(N)nc(N)nc2-c2ccccc2)ccc1=O [Example 105, 6-(2,4-diamino-6-phenyl-5-pyrimidinyl)-2-isopropyl-3(2H)-pyridazinone] | 258 to 260
12 | CNc1nc(N)nc(-c2ccccc2)c1-c1ccc(=O)n(C(C)C)n1 [Example 106, 6-[2-Amino-4-(methylamino)-6-phenyl-5-pyrimidinyl]-2-isopropyl-3(2H)-pyridazinone] | 268 to 270
13 | CC(C)n1nc(-c2c(-c3ccccc3)nc(N)nc2N(C)C)ccc1=O [Example 107, 6-[2-Amino-4-(dimethylamino)-6-phenyl-5-pyrimidinyl]-2-isopropyl-3(2H)-pyridazinone] | 293 to 296
14 | CCNc1nc(N)nc(-c2ccccc2)c1-c1ccc(=O)n(C(C)C)n1 [Example 108, 6-[2-Amino-4-(ethylamino)-6-phenyl-5-pyrimidinyl]-2-isopropyl-3(2H)-pyridazinone] | 208 to 209
15 | CCCNc1nc(N)nc(-c2ccccc2)c1-c1ccc(=O)n(C(C)C)n1 [Example 109, 6-[2-Amino-4-phenyl-6-(propylamino)-5-pyrimidinyl]-2-isopropyl-3(2H)-pyridazinone] | 209 to 212
16 | CC(C)Nc1nc(N)nc(-c2ccccc2)c1-c1ccc(=O)n(C(C)C)n1 [Example 110, 6-[2-Amino-4-(isopropylamino)-6-phenyl-5-pyrimidinyl]-2-isopropyl-3(2H)-pyridazinone] | 234 to 236
17 | C=CCNc1nc(N)nc(-c2ccccc2)c1-c1ccc(=O)n(C(C)C)n1 [Example 111, 6-[4-(Allylamino)-2-amino-6-phenyl-5-pyrimidinyl]-2-isopropyl-3(2H)-pyridazinone] | 191.5 to 192.5
18 | CC(C)n1nc(-c2c(NC3CC3)nc(N)nc2-c2ccccc2)ccc1=O [Example 112, 6-[2-Amino-4-(cyclopropylamino)-6-phenyl-5-pyrimidinyl]-2-isopropyl-3(2H)-pyridazinone] | 237 to 239
19 | CC(C)n1nc(-c2c(NC(C)(C)C)nc(N)nc2-c2ccccc2)ccc1=O [Example 113, 6-[2-Amino-4-(tert-butylamino)-6-phenyl-5-pyrimidinyl]-2-isopropyl-3(2H)-pyridazinone] | 202 to 204
20 | CC(C)n1nc(-c2c(NCCO)nc(N)nc2-c2ccccc2)ccc1=O [Example 114, 6-{2-amino-4-[(2-hydroxyethyl)amino]-6-phenyl-5-pyrimidinyl}-2-isopropyl-3(2H)-pyridazinone] | 221.5 to 223.5
21 | CC(C)n1nc(-c2c(NCCN(C)C)nc(N)nc2-c2ccccc2)ccc1=O [Example 117, 6-(2-Amino-4-{[2-(dimethylamino)ethyl]amino}-6-phenyl-5-pyrimidinyl)-2-isopropyl-3(2H)-pyridazinone] | 164 to 165.5
22 | CC(C)n1nc(-c2c(-c3ccccc3)nc(N)nc2N(C)Cc2ccccc2)ccc1=O [Example 120, 6-{2-amino-4-[benzyl(methyl)amino]-6-phenyl-5-pyrimidinyl}-2-isopropyl-3(2H)-pyridazinone] | 167 to 168
23 | CC(C)n1nc(-c2c(NCc3ccccn3)nc(N)nc2-c2ccccc2)ccc1=O [Example 121, 6-{2-Amino-4-phenyl-6-[(2-pyridinylmethyl)amino]-5-pyrimidinyl}-2-isopropyl-3(2H)-pyridazinone] | 196 to 198
24 | CC(C)n1nc(-c2c(NCc3cccnc3)nc(N)nc2-c2ccccc2)ccc1=O [Example 122, 6-{2-Amino-4-phenyl-6-[(3-pyridinylmethyl)amino]-5-pyrimidinyl}-2-isopropyl-3(2H)-pyridazinone] | 215 to 216.5
25 | CC(C)n1nc(-c2c(NCc3ccncc3)nc(N)nc2-c2ccccc2)ccc1=O [Example 123, 6-{2-Amino-4-phenyl-6-[(4-pyridinylmethyl)amino]-5-pyrimidinyl}-2-isopropyl-3(2H)-pyridazinone] | 221.5 to 222.5

The next lines start with the values.

Row | melting point [°C] | SMILES
26 | 182 to 183 | CC(C)n1nc(-c2c(OCCO)nc(N)nc2-c2ccccc2)ccc1=O [Example 86, 6-[2-Amino-4-(2-hydroxyethoxy)-6-phenyl-5-pyrimidinyl]-2-isopropyl-3(2H)-pyridazinone]
27 | 128 to 130 | COCCOc1nc(N)nc(-c2ccccc2)c1-c1ccc(=O)n(C(C)C)n1 [Example 87, 6-[2-Amino-4-(2-methoxyethoxy)-6-phenyl-5-pyrimidinyl]-2-isopropyl-3(2H)-pyridazinone]
28 | 231.5 to 232.5 | CC(C)n1nc(-c2c(OCCN3C(=O)c4ccccc4C3=O)nc(N)nc2-c2ccccc2)ccc1=O [Example 90, 2-(2-{[2-Amino-5-(1-isopropyl-6-oxo-1,6-dihydro-3-pyridazinyl)-6-phenyl-4-pyrimidinyl]oxy}-ethyl)-1H-isoindole-1,3(2H)-dione]
29 | 129 to 130.5 | CC(C)n1nc(-c2c(OCCF)nc(N)nc2-c2ccccc2)ccc1=O [Example 92, 6-[2-Amino-4-(2-fluoroethoxy)-6-phenyl-5-pyrimidinyl]-2-isopropyl-3(2H)-pyridazinone]
30 | 162 to 163 | CC(C)n1nc(-c2c(OCc3ccccc3)nc(N)nc2-c2ccccc2)ccc1=O [Example 93, 6-[2-amino-4-(benzyloxy)-6-phenyl-5-pyrimidinyl]-2-isopropyl-3(2H)-pyridazinone]
31 | 207 to 209 | CC(C)n1nc(-c2c(OC3CCOCC3)nc(N)nc2-c2ccccc2)ccc1=O [Example 97, 6-[2-Amino-4-phenyl-6-(tetrahydro-2H-pyran-4-yloxy)-5-pyrimidinyl]-2-isopropyl-3(2H)-pyridazinone]
32 | 87 to 92 | CC(C)n1nc(-c2c(OCC(=O)NC3CC3)nc(N)nc2-c2ccccc2)ccc1=O [Example 103, 2-{[2-Amino-5-(1-isopropyl-6-oxo-1,6-dihydro-3-pyridazinyl)-6-phenyl-4-pyrimidinyl]oxy}-N-cyclopropylacetamide]
33 | 213 to 216 | CC(C)n1nc(-c2c(OCCN)nc(N)nc2-c2ccccc2)ccc1=O [Example 104, 6-[2-amino-4-(2-aminoethoxy)-6-phenyl-5-pyrimidinyl]-2-isopropyl-3(2H)-pyridazinone]
34 | 168 to 170 | COCCNc1nc(N)nc(-c2ccccc2)c1-c1ccc(=O)n(C(C)C)n1 [Example 115, 6-{2-amino-4-[(2-methoxyethyl)amino]-6-phenyl-5-pyrimidinyl}-2-isopropyl-3(2H)-pyridazinone]
35 | 194 to 197 | CC(C)n1nc(-c2c(NCCN)nc(N)nc2-c2ccccc2)ccc1=O [Example 116, 6-{2-Amino-4-[(2-aminoethyl)amino]-6-phenyl-5-pyrimidinyl}-2-isopropyl-3(2H)-pyridazinone]
36 | 235 to 237.5 | CC(C)n1nc(-c2c(NCC(N)=O)nc(N)nc2-c2ccccc2)ccc1=O [Example 118, 2-{(2-amino-5-(1-isopropyl-6-oxo-1,6-dihydro-3-pyridazinyl)-6-phenyl-4-pyrimidinyl]amino}acetamide]
37 | 213 to 214 | CC(C)n1nc(-c2c(NCc3ccco3)nc(N)nc2-c2ccccc2)ccc1=O [Example 124, 6-{2-Amino-4-[(2-furylmethyl)amino]-6-phenyl-5-pyrimidinyl}-2-isopropyl-3(2H)-pyridazinone]
38 | > 300 | CC(C)n1nc(-c2c(-c3ccccc3)nc(N)nc2N2CCCC2)ccc1=O [Example 125, 6-[2-Amino-4-phenyl-6-(1-pyrrolidinyl)-5-pyrimidinyl]-2-isopropyl-3(2H)-pyridazinone]
